The record followed here is patent US20030005927A1, “Process and device for inhalation of particulate medicaments” (priority 1996, published 2003).

“Also recorded” adds a separate entry of the source. Counter-ions that a name gives are not always drawn.

A short description of this series: Spray drying of solutions; particle geometric diameter and hollow/solid structure by photomicrograph. Format: physicochemical. The note with it: for Geometric Diameter (average particle diameter) / Hollow or Solid: spray dried particles from aqueous solution; for Geometric Diameter (average particle diameter): VIRTIS spray dryer; for Hollow or Solid: photomicrographs. The method, then:
Medicament powder of each of the two medicaments, albuterol sulfate and amiloride HCl (abbreviated herein as Alb S and Amil HCl, respectively), is employed in this example. Also, the excipient, lactose, is employed in this example. Aliquots of each of the medicaments, and also of lactose, are spray dried as follows.
15 g of Alb S (lot no. W 1946 FB) are dissolved in 300 ml of water to create a 5% solution. Similarly, 3.479 g of Amil HCl (lot no. 9007H 902) are diluted in water to 1000 ml to create a solution. Likewise, 15 g of lactose (lot no. 1NC25, 605 from Sheffield Products of Norwich, N.Y.) are diluted in water to 150 ml to create a solution.
Each solution is respectively spray dried using a VIRTIS™ (a spray dryer commercially available from The Virtis Company of Gardiner, N.Y.) with each of the air from the nozzle and from the blower set at its respective maximum value under the following conditions of temperature and rate, as summarized in Table A below: […]

For `N=C(N)NC(=O)c1nc(Cl)c(N)nc1N` [Amil HCl, amiloride HCl], the “Geometric Diameter (average particle diameter)” value (from here on “Geometric Diameter”) is 1 to 5 μm. Moreover, under “HCl”, the “Hollow or Solid” value is reported as “spherical hollow particulates; also recorded: hollow spheres”.
On to `OC[C@H]1O[C@@H](O[C@H]2[C@H](O)[C@@H](O)C(O)O[C@@H]2CO)[C@H](O)[C@@H](O)[C@H]1O` (some centres unmarked) [Lactose, lactose], for which the “Geometric Diameter” value turned out to be 2 μm and the “Hollow or Solid” value is reported as “hollow spheres”. For the same compound, the “Hollow or Solid” value (listed as lactose) was “spherical hollow particulates”. The “average particle diameter of the largest particulate” value (spray dried, photomicrographs FIGS. 6 and 7) is “about 17 μm”.
For the compound albuterol sulfate [Alb S], the “Geometric Diameter” value was in the range of 1 to 5 μm and the “Hollow or Solid” value is “dimpled solid structures; also recorded: dimpled solids”.
